Reference: PubChem BioAssay AID1919013 (Molecular Pharmacology Branch, DTP, NCI, 2023)
Where “and” joins values, the source holds several entries; their conditions need not be identical. Equal entries are not always repeated.

System: LG0703-F498-PDC complex spheroid growth
Test: Anticancer human tumor LG0703-F498-PDC patient-derived lung adenocarcinoma cell line growth inhibition [AhR]
Conditions: for viability, T/C: stronger effect = lower value
Procedure, shortened: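 Complex tumor spheroids co-cultured with HUVEC and human MSC stroma; AhR antagonists tested in combination with standard-of-care and investigational agents. Top concentration at or near clinical Cmax (else 10 microM), half-log dilutions; growth expressed as percent test/control.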

[1] = curve of first compound, second compound 0.1 µM
[2] = curve of first compound, second compound 0.316 µM
[3] = curve of first compound, second compound 1 µM
[4] = curve of first compound, second compound 3.16 µM
[5] = curve of first compound, second compound 10 µM
[6] = second compound 0.1 µM, first compound 0.0316 µM
[7] = second compound 0.1 µM, first compound 0.1 µM
[8] = second compound 0.1 µM, first compound 0.316 µM
[9] = second compound 0.1 µM, first compound 1 µM
[10] = second compound 0.1 µM, first compound 3.16 µM
[11] = second compound 0.1 µM, first compound 10 µM
[12] = second compound 0.316 µM, first compound 0.0316 µM
[13] = second compound 0.316 µM, first compound 0.1 µM
[14] = second compound 0.316 µM, first compound 0.316 µM
[15] = second compound 0.316 µM, first compound 1 µM
[16] = second compound 0.316 µM, first compound 3.16 µM
[17] = second compound 0.316 µM, first compound 10 µM
[18] = second compound 1 µM, first compound 0.0316 µM
[19] = second compound 1 µM, first compound 0.1 µM
[20] = second compound 1 µM, first compound 0.316 µM
[21] = second compound 1 µM, first compound 1 µM
[22] = second compound 1 µM, first compound 3.16 µM
[23] = second compound 1 µM, first compound 10 µM
[24] = second compound 3.16 µM, first compound 0.0316 µM
[25] = second compound 3.16 µM, first compound 0.1 µM
[26] = second compound 3.16 µM, first compound 0.316 µM
[27] = second compound 3.16 µM, first compound 1 µM
[28] = second compound 3.16 µM, first compound 3.16 µM
[29] = second compound 3.16 µM, first compound 10 µM
[30] = second compound 10 µM, first compound 0.0316 µM
[31] = second compound 10 µM, first compound 0.1 µM
[32] = second compound 10 µM, first compound 0.316 µM
[33] = second compound 10 µM, first compound 1 µM
[34] = second compound 10 µM, first compound 3.16 µM
[35] = second compound 10 µM, first compound 10 µM
[36] = second compound 0.1 µM, first compound 0.00316 µM
[37] = second compound 0.1 µM, first compound 0.01 µM
[38] = second compound 0.316 µM, first compound 0.00316 µM
[39] = second compound 0.316 µM, first compound 0.01 µM
[40] = second compound 1 µM, first compound 0.00316 µM
[41] = second compound 1 µM, first compound 0.01 µM
[42] = second compound 3.16 µM, first compound 0.00316 µM
[43] = second compound 3.16 µM, first compound 0.01 µM
[44] = second compound 10 µM, first compound 0.00316 µM
[45] = second compound 10 µM, first compound 0.01 µM
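Note: luminescence taken as a proxy for viable cell amount.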
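Throughout, for viability, T/C: percent of DMSO vehicle control where 100% means growth equal to vehicle.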

| IC50 [1] [nM] | IC50 [2] [nM] | IC50 [3] [nM] | IC50 [4] [nM] | IC50 [5] [nM] | SMILES | viability, T/C [6] [%] | viability, T/C [7] [%] | viability, T/C [8] [%] | viability, T/C [9] [%] | viability, T/C [12] [%] | viability, T/C [13] [%] | viability, T/C [14] [%] | viability, T/C [15] [%] | viability, T/C [18] [%] | viability, T/C [19] [%] | viability, T/C [20] [%] | viability, T/C [24] [%] | viability, T/C [25] [%] | viability, T/C [30] [%] | viability, T/C [31] [%] | further results |
| --- | --- | --- | --- | --- | --- | --- | --- | --- | --- | --- | --- | --- | --- | --- | --- | --- | --- | --- | --- | --- | --- |
| 401 | 428 | 461 | 413 | 335 | Nc1ccccc1NC(=O)c1ccc(CNC(=O)OCc2cccnc2)cc1 + CC(CO)NC(=O)c1cc(-c2ccc(Cl)cc2)nn(-c2cnn(C)c2)c1=O | 82.4 | 86.8 | 56.2 | 19.3 | 72.8 | 71.6 | 59.7 | 22.6 | 77.8 | 79.9 | 64.5 | 74.3 | 71.6 | 70.4 | 77 | viability, T/C [10]: 2.71%; viability, T/C [11]: 0.45%; viability, T/C [16]: 2.65%; viability, T/C [17]: 0.63%; viability, T/C [21]: 19.6%; viability, T/C [22]: 3.74%; viability, T/C [23]: 0.67%; viability, T/C [26]: 59.3%; viability, T/C [27]: 19.7%; viability, T/C [28]: 2.42%; viability, T/C [29]: 0.89%; viability, T/C [32]: 48.1%; viability, T/C [33]: 21.8%; viability, T/C [34]: 3.12%; viability, T/C [35]: 1.17% |
| > 100 | > 100 | > 100 | > 100 | > 100 | Cn1ncnc1C1c2n[nH]c(=O)c3cc(F)cc(c23)NC1c1ccc(F)cc1 (stereo not drawn) + CC(CO)NC(=O)c1cc(-c2ccc(Cl)cc2)nn(-c2cnn(C)c2)c1=O | 90.2 | 80.9 |  |  | 83.1 | 71.5 |  |  | 75.1 | 74.6 |  | 71.8 | 70.2 | 76.8 | 66.8 | viability, T/C (second compound 0.1 µM, first compound 0.000316 µM): 89.3%; viability, T/C (second compound 0.1 µM, first compound 0.001 µM): 86.6%; viability, T/C [36]: 99.1%; viability, T/C [37]: 79.5%; viability, T/C (second compound 0.316 µM, first compound 0.000316 µM): 79.2%; viability, T/C (second compound 0.316 µM, first compound 0.001 µM): 95.7%; viability, T/C [38]: 83.3%; viability, T/C [39]: 72.6%; viability, T/C (second compound 1 µM, first compound 0.000316 µM): 76.7%; viability, T/C (second compound 1 µM, first compound 0.001 µM): 91.2%; viability, T/C [40]: 88.7%; viability, T/C [41]: 73.4%; viability, T/C (second compound 3.16 µM, first compound 0.000316 µM): 80.8%; viability, T/C (second compound 3.16 µM, first compound 0.001 µM): 83.7%; viability, T/C [42]: 80.4%; viability, T/C [43]: 73.9%; viability, T/C (second compound 10 µM, first compound 0.000316 µM): 69.6%; viability, T/C (second compound 10 µM, first compound 0.001 µM): 74.3%; viability, T/C [44]: 79.7%; viability, T/C [45]: 73.6% |
| > 10000 | > 10000 | > 10000 | > 10000 | > 10000 | CC(C)c1c(-c2ccccc2)nc2c(C#N)c[nH]n2c1=O + CC(CO)NC(=O)c1cc(-c2ccc(Cl)cc2)nn(-c2cnn(C)c2)c1=O | 94.2 | 96.5 | 87.5 | 86.1 | 88.2 | 95.5 | 100 | 78.9 | 82 | 88.7 | 83.8 | 70.3 | 96.7 | 73 | 76.5 | viability, T/C [10]: 87.3%; viability, T/C [11]: 80.8%; viability, T/C [16]: 84.1%; viability, T/C [17]: 78.5%; viability, T/C [21]: 87.3%; viability, T/C [22]: 83.4%; viability, T/C [23]: 82%; viability, T/C [26]: 73.3%; viability, T/C [27]: 69%; viability, T/C [28]: 85%; viability, T/C [29]: 78.1%; viability, T/C [32]: 66.2%; viability, T/C [33]: 69.2%; viability, T/C [34]: 67.4%; viability, T/C [35]: 69.4% |
|  |  |  |  |  | Cc1ccccc1N=Nc1ccc(NC(=O)c2ccnn2C)c(C)c1 |  |  |  |  |  |  |  |  |  |  |  |  |  |  |  | viability, T/C (compound 1 µM): 90.5% [middle of 20 runs]; viability, T/C (compound 3.16 µM): 85.7% [middle of 20 runs]; IC50 (compound alone, run of 06/14/2022): > 10000 nM |
|  |  |  |  |  | CC(CO)NC(=O)c1cc(-c2ccc(Cl)cc2)nn(-c2cnn(C)c2)c1=O (stereo not drawn) |  |  |  |  |  |  |  |  |  |  |  |  |  |  |  | viability, T/C (compound 1 µM): 87.9% [middle of 21 runs]; viability, T/C (compound 10 µM): 77% [middle of 19 runs]; IC50 (compound alone, run of 05/31/2022): > 10000 nM |
|  |  |  |  |  | Nc1ccn(C2OC(CO)C(O)C2(F)F)c(=O)n1 (stereo not drawn) |  |  |  |  |  |  |  |  |  |  |  |  |  |  |  | viability, T/C (compound 0.0316 µM): 38% and 42% and 41.4%; viability, T/C (compound 0.1 µM): 37.1% and 44.8% and 35.2%; viability, T/C (compound 0.316 µM): 35.5% and 47.5% and 34.7%; viability, T/C (compound 1 µM): 32.2% and 38.6% and 33.6%; viability, T/C (compound 3.16 µM): 26.9% and 34.3% and 30.5%; viability, T/C (compound 10 µM): 20.3% and 28.3% and 21.4%; IC50 (curve of compound): < 31.6 nM |
| 607 | 636 | 667 | 690 | 727 | O=C(C=Cc1cccc(S(=O)(=O)Nc2ccccc2)c1)NO + CC(CO)NC(=O)c1cc(-c2ccc(Cl)cc2)nn(-c2cnn(C)c2)c1=O | 106 | 112 | 77.3 | 28.5 | 105 | 101 | 77 | 32.4 | 102 | 106 | 77.8 | 105 | 108 | 101 | 121 | viability, T/C [10]: 7%; viability, T/C [11]: 1.6%; viability, T/C [16]: 7.34%; viability, T/C [17]: 1.04%; viability, T/C [21]: 34.6%; viability, T/C [22]: 8.18%; viability, T/C [23]: 1.73%; viability, T/C [26]: 74.4%; viability, T/C [27]: 39%; viability, T/C [28]: 7.73%; viability, T/C [29]: 1.63%; viability, T/C [32]: 81.8%; viability, T/C [33]: 37.6%; viability, T/C [34]: 8.76%; viability, T/C [35]: 1.23% |
| > 1000 | > 1000 | > 1000 | > 1000 | > 1000 | Nc1ncn(C2CC(O)C(CO)O2)c(=O)n1 (stereo not drawn) + CC(CO)NC(=O)c1cc(-c2ccc(Cl)cc2)nn(-c2cnn(C)c2)c1=O | 84.8 | 91.1 | 85.9 | 78 | 82.2 | 87.5 | 79.2 | 76.5 | 78.5 | 79.5 | 71.7 | 88.4 | 67.9 | 79.3 | 80.3 | viability, T/C [36]: 85.3%; viability, T/C [37]: 99.4%; viability, T/C [38]: 81.5%; viability, T/C [39]: 91.9%; viability, T/C [40]: 83.5%; viability, T/C [41]: 106%; viability, T/C [21]: 77.4%; viability, T/C [42]: 78.7%; viability, T/C [43]: 80%; viability, T/C [26]: 80.5%; viability, T/C [27]: 71.8%; viability, T/C [44]: 87.4%; viability, T/C [45]: 80.2%; viability, T/C [32]: 69.9%; viability, T/C [33]: 72.7% |
